Test results taken from ChEMBL document CHEMBL1142222, “A-803467, a potent and selective Nav1.8 sodium channel blocker, attenuates neuropathic and inflammatory pain in the rat” (Proc Natl Acad Sci U S A, 2007).

Tests used:
Rattus norvegicus [1] = test: Analgesic activity in ip dosed rat colonic distension model; type: functional
Adenosine receptor A1 = Adenosine receptor A1 (Homo sapiens, UniProt P30542); test: Displacement of [3H]DPCPX from adenosine A1 receptor
[2] = molecular target: T1, Sodium channel protein type 9 subunit alpha (Homo sapiens, UniProt Q15858); test: Inhibition of human Nav1.7 channel expressed in HEK293 cells at -120 mV by patch clamp method; type: cell-based
T1 sequence (Q15858 whole entry): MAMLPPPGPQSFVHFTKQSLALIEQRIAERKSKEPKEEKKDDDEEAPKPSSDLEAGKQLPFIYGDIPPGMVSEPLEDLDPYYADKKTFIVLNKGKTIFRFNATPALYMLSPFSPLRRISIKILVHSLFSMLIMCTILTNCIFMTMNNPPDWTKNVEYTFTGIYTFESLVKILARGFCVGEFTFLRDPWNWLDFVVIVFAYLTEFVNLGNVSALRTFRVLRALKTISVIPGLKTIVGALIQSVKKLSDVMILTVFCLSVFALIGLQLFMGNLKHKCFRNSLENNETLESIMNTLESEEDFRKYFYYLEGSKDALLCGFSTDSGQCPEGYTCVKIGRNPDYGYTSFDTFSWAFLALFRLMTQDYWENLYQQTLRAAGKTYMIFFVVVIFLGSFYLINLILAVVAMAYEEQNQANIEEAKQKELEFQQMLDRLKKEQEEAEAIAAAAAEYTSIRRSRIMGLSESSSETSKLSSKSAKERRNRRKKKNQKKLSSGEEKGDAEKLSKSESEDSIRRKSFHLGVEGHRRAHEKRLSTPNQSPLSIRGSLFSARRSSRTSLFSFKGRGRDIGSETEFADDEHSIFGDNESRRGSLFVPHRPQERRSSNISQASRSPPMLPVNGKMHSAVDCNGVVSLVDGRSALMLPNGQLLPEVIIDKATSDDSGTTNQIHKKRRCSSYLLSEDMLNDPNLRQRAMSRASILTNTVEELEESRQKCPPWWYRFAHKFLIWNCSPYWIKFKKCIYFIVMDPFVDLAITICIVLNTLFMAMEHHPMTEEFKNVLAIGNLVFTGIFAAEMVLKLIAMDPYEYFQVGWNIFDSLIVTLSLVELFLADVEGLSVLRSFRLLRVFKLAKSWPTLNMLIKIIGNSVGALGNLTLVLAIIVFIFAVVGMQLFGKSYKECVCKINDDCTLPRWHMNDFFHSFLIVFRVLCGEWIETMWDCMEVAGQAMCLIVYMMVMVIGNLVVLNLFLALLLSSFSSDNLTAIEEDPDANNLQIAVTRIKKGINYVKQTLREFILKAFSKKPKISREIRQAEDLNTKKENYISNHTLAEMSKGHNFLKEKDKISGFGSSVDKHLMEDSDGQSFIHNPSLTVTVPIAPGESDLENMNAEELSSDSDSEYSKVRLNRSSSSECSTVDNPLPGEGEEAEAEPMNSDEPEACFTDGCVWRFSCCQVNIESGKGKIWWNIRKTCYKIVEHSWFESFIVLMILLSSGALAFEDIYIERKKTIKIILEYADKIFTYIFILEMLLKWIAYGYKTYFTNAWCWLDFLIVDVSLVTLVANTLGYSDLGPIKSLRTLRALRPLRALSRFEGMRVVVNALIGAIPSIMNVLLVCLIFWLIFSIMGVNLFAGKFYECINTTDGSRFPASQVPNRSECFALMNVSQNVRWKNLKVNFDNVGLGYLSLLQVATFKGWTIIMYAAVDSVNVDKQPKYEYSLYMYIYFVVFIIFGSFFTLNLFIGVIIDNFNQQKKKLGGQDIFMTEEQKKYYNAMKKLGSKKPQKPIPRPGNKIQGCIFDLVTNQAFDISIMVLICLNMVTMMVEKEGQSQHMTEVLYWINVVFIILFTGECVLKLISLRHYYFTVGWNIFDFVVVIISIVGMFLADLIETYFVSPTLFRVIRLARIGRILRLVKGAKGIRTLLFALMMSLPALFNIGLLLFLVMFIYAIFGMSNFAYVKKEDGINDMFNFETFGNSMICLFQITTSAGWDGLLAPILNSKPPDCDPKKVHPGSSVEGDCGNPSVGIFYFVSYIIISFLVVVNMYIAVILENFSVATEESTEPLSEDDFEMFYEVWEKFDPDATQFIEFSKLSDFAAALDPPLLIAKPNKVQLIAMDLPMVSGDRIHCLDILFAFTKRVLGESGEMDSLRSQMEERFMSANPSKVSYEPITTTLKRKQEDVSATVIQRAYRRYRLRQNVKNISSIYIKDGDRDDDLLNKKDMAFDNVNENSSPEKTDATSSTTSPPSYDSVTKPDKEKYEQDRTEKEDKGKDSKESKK

Histamine H1 receptor = Histamine H1 receptor (Homo sapiens, UniProt P35367); test: Displacement of [3H]pyrilamine from histamine H1 receptor
[3] = Bioavailability in rat at 10 mg/kg, ip; type: ADME, organism-based; settings: in vivo
Rattus norvegicus [4] = species on record: Rattus norvegicus; test: Motor effect in rat by rotarod test; type: functional
[5] = Displacement of [3H]prazosin from adrenergic alpha-1 receptor
[6] = molecular target: 5-hydroxytryptamine receptor 7 (Homo sapiens, UniProt P34969); test: Displacement of [3H]LSD from 5HT7 receptor
[7] = molecular target: Muscarinic acetylcholine receptor M1 (Homo sapiens, UniProt P11229); test: Displacement of [3H]pirezepine from muscarinic M1 receptor
Rattus norvegicus [8] = test: Analgesic activity in ip dosed rat chronic constriction injury model of cold allodynic neuropathic pain; type: functional
[9] = molecular target: 5-hydroxytryptamine receptor 6 (Homo sapiens, UniProt P50406); test: Displacement of [3H]LSD from 5HT6 receptor
Rattus norvegicus [10] = test: Analgesic activity in rat complete Freund's adjuvant-induced thermal hyperalgesia model assessed as paw withdrawal latency at 100 mg/kg, ip after 4 days; type: functional; settings: route intraperitoneal
[11] = molecular target: 5-hydroxytryptamine receptor 2A (Homo sapiens, UniProt P28223); test: Displacement of [3H]ketanserin from 5HT2A receptor
Rattus norvegicus [12] = test: Antinociceptive activity in rat assessed as reduction of von Frey evoked firing of spinal dorsal horn wide dynamic range neurons at 20 mg/kg, iv; type: functional, Dorsal horn of spinal cord; design: scale not given: the % may be the effect or the level left
P2X purinoceptor 2 = P2X purinoceptor 2 (Homo sapiens, UniProt Q9UBL9); test: Inhibition of P2X2 receptor
Rattus norvegicus [13] = test: Analgesic activity in rat formalin flinching inflammatory pain model at 300 mg/kg, ip; type: functional; settings: route intraperitoneal
[14] = molecular target: T2, Sodium channel protein type 3 subunit alpha (Homo sapiens, UniProt Q9NY46); test: Inhibition of human Nav1.3 channel expressed in HEK293 cells at -60 mV by patch clamp method; type: cell-based
Rattus norvegicus [15] = test: Motor effect in rat by rotarod test at 300 mg/kg, ip; type: functional; settings: route intraperitoneal
Rattus norvegicus [16] = test: Analgesic activity in rat colonic distension model at 100 mg/kg, ip; type: functional; settings: route intraperitoneal
[17] = molecular target: T2, Sodium channel protein type 3 subunit alpha; test: Inhibition of human Nav1.3 channel expressed in HEK293 cells at -120 mV by patch clamp method; type: cell-based
[18] = molecular target: Muscarinic acetylcholine receptor M2 (Homo sapiens, UniProt P08172); test: Displacement of [3H]AF-DX384 from muscarinic M2 receptor
[19] = Oral bioavailability in rat; type: ADME, organism-based; settings: in vivo
Rattus norvegicus [20] = test: Analgesic activity in rat L5/L6 spinal nerve ligation-induced neuropathic pain model at 100 mg/kg, ip; type: functional; settings: route intraperitoneal
[21] = molecular target: T3, Sodium channel protein type 10 subunit alpha (Rattus norvegicus, UniProt Q62968); test: Inhibition of recombinant rat Nav1.8 sodium channel assessed as blockade of TTXR current by patch clamp method
T3 sequence (Q62968 whole entry): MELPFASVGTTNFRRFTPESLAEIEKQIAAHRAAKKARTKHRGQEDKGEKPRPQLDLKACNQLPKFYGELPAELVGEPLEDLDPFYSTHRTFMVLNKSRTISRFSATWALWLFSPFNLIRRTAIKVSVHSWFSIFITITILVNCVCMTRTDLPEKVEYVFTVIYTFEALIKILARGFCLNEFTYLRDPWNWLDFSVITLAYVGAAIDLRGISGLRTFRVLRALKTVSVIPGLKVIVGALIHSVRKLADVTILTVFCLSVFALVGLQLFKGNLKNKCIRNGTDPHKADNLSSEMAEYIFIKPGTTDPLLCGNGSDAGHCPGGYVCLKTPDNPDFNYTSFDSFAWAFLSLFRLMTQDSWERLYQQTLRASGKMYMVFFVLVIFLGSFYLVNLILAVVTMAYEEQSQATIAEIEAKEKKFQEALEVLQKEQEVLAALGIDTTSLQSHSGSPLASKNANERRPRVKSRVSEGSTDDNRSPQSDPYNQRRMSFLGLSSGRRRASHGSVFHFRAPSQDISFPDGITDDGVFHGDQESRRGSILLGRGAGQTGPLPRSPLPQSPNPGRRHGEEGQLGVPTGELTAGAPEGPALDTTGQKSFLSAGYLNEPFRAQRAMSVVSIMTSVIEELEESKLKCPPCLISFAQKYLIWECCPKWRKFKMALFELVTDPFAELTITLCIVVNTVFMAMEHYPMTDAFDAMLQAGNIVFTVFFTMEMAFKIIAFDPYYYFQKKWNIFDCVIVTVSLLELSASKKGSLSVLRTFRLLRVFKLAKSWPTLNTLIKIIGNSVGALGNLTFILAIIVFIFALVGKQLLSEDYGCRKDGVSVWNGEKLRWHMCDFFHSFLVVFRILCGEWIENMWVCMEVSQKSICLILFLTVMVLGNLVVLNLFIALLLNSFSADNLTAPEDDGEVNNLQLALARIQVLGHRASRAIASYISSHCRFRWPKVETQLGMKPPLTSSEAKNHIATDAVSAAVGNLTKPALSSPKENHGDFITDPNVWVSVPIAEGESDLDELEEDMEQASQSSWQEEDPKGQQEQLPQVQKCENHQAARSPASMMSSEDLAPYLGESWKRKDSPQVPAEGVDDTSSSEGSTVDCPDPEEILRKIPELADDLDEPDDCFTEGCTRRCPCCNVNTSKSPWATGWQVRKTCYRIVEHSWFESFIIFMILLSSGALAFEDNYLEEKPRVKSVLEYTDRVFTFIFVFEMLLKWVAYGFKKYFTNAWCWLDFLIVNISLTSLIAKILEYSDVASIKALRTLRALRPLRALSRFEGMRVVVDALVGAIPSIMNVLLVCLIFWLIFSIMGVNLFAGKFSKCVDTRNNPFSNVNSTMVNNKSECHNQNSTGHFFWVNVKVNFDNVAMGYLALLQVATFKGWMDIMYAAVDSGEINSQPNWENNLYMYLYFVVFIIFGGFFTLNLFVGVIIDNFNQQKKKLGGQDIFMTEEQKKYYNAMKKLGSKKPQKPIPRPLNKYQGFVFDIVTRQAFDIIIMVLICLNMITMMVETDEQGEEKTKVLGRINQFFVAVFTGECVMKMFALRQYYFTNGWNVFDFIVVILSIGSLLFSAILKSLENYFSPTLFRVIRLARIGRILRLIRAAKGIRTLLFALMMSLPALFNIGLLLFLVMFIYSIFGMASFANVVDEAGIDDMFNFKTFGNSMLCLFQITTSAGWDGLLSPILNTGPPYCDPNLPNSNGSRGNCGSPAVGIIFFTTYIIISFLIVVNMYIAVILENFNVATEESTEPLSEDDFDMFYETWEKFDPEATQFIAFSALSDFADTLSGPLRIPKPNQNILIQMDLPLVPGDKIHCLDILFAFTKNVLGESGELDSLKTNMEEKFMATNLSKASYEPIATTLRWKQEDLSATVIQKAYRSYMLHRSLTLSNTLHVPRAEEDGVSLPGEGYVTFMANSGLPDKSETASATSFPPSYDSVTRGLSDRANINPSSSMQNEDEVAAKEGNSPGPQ

Rattus norvegicus [22] = test: Analgesic activity in ip dosed rat cyclophosphamide induced cyctitis model at 100 mg/kg, ip; type: functional; settings: route intraperitoneal
Rattus norvegicus [23] = test: Analgesic activity in ip dosed rat complete Freund's adjuvant-induced mechanical hyperalgesia model assessed as paw withdrawal latency after 4 days; type: functional; settings: 96 h
P2Y purinoceptor 2 = P2Y purinoceptor 2 (Homo sapiens, UniProt P41231); test: Displacement of [35S]dATP-alpha-S from P2Y receptor
Rattus norvegicus [24] = test: Analgesic activity in rat carrageenan-induced […] pain model at 100 mg/kg, ip; type: functional; settings: route intraperitoneal
[25] = molecular target: Voltage-dependent N-type calcium channel subunit alpha-1B (Homo sapiens, UniProt Q00975); test: Inhibition of Cav2.2 channel
[26] = molecular target: T1, Sodium channel protein type 9 subunit alpha; test: Inhibition of human Nav1.7 channel expressed in HEK293 cells at -60 mV by patch clamp method; type: cell-based
[27] = molecular target: Potassium voltage-gated channel subfamily KQT member 3 (Homo sapiens, UniProt O43525); test: Inhibition of KCNQ3 channel
D(1A) dopamine receptor = D(1A) dopamine receptor (Homo sapiens, UniProt P21728); test: Displacement of [3H]SCH-23390 from dopamine D1 receptor
D(3) dopamine receptor = D(3) dopamine receptor (Homo sapiens, UniProt P35462); test: Displacement of [3H]spiperone from dopamine D3 receptor
Histamine H2 receptor = Histamine H2 receptor (Homo sapiens, UniProt P25021); test: Displacement of [125I]APT from histamine H2 receptor
Chain of Histamine H2 receptor (P25021 whole entry): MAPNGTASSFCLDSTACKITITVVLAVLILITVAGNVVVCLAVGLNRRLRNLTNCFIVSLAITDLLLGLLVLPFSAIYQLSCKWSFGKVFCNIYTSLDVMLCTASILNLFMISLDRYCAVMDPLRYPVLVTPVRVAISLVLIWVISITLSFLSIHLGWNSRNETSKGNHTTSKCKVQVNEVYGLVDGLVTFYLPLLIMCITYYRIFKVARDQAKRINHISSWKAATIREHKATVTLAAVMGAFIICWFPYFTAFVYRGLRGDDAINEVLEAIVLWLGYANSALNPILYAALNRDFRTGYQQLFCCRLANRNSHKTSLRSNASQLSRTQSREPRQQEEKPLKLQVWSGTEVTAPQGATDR

[28] = molecular target: Beta-2 adrenergic receptor (Homo sapiens, UniProt P07550); test: Displacement of [3H](-)CGP-12177 from adrenergic beta2 receptor
[29] = Elimination half life in iv dosed rat; type: ADME, organism-based; settings: in vivo
Rattus norvegicus [30] = test: Analgesic activity in ip dosed rat chronic constriction injury model of mechanical allodynia; type: functional
[31] = molecular target: Alpha-2A adrenergic receptor (Homo sapiens, UniProt P08913); test: Displacement of [3H]RX821002 from adrenergic alpha-2 receptor
[32] = Cmax in rat at 10 mg/kg, po; type: ADME, organism-based; design: dose 10 mg/kg, route oral; settings: in vivo
Rattus norvegicus [33] = test: Analgesic activity in rat vincristine-induced mechanical allodynic neuropathic pain at 100 mg/kg, ip; type: functional; settings: route intraperitoneal
ADRB1 = ADRB1 (Homo sapiens, UniProt P08588); test: Displacement of [3H](-)CGP-12177 from adrenergic beta-1 receptor
Chain of ADRB1 (P08588 whole entry, looked up): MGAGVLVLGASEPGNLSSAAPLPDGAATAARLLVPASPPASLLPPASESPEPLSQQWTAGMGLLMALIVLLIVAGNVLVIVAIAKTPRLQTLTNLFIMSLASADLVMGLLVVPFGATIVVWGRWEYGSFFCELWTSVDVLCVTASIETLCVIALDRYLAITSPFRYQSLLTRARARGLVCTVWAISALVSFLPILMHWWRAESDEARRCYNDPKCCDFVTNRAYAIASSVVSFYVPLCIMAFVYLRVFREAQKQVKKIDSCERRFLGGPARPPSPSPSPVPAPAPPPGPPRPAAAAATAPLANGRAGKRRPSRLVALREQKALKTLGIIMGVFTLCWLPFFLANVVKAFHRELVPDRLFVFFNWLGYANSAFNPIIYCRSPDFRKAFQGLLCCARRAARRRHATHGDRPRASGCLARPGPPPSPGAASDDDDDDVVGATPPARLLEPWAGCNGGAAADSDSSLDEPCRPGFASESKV

[34] = molecular target: Transient receptor potential cation channel subfamily V member 1 (Homo sapiens, UniProt Q8NER1); test: Inhibition of TRPV1
Rattus norvegicus [35] = test: Analgesic activity in ip dosed rat complete Freund's adjuvant-induced thermal hyperalgesia model assessed as paw withdrawal latency after 4 days; type: functional; settings: 96 h
Rattus norvegicus [36] = test: Analgesic activity in rat acute thermal stimulation nociception model assessed as paw withdrawal latency at 100 mg/kg, ip; type: functional; settings: route intraperitoneal
Rattus norvegicus [37] = test: Analgesic activity in ip dosed rat formalin flinching inflammatory pain model; type: functional
[38] = molecular target: T3, Sodium channel protein type 10 subunit alpha; test: Inhibition of Nav1.8 channel in rat dorsal root ganglion neurons assessed as blockade of TTX-R current at -100 mV by patch clamp method; type: tissue-based
Rattus norvegicus [39] = test: Analgesic activity in rat capsaicn induced mechanical allodynia model at 300 mg/kg, ip; type: functional; settings: route intraperitoneal
[40] = molecular target: Sodium channel protein type 2 subunit alpha (Homo sapiens, UniProt Q99250); test: Inhibition of human Nav1.2 channel expressed in HEK293 cells at -120 mV by patch clamp method; type: cell-based
[41] = molecular target: T3, Sodium channel protein type 10 subunit alpha; test: Inhibition of Nav1.8 channel in rat dorsal root ganglion neurons assessed as blockade of TTX-R current by patch clamp method; type: tissue-based
Rattus norvegicus [42] = test: Motor effect in rat assessed as locomotory activity at 300 mg/kg, ip; type: functional; settings: route intraperitoneal
Rattus norvegicus [43] = test: Analgesic activity in ip dosed rat cyclophosphamide induced cyctitis model; type: functional
[44] = molecular target: Delta-type opioid receptor (Homo sapiens, UniProt P41143); test: Displacement of [3H]DADLE from opioid delta receptor
Rattus norvegicus [45] = test: Analgesic activity in rat skin incision model of post-operative pain at 100 mg/kg, ip after 2 hrs; type: functional; settings: route intraperitoneal

Chain of Adenosine receptor A1 (P30542 whole entry): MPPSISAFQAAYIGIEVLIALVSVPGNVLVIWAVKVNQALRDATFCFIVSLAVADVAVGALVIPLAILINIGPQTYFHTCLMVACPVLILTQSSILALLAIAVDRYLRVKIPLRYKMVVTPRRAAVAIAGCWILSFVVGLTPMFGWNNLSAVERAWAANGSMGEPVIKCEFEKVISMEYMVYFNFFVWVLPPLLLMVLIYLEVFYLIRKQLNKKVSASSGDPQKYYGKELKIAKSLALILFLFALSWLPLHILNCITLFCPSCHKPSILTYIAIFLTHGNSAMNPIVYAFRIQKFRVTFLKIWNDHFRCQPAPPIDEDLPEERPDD

- IC50 (Adenosine receptor A1): > 10 µM
- IC50 [2]: 35.3 µM
- IC50 (Histamine H1 receptor): > 10 µM
- bioavailability [3]: 26%
- IC50 [5]: > 10 µM
- IC50 [6]: > 10 µM
- IC50 [7]: > 10 µM
- IC50 [9]: > 10 µM
- IC50 [11]: 3 µM
- IC50 (P2X purinoceptor 2): > 10 µM
- IC50 [14]: 2.45 µM
- IC50 [17]: 11.8 µM
- IC50 [18]: > 10 µM
- bioavailability [19]: 12.8%
- IC50 [21]: 0.045 µM
- IC50 (P2Y purinoceptor 2): > 10 µM
- IC50 [25]: > 10 µM
- IC50 [26]: 6.74 µM
- IC50 [27]: > 10 µM
- IC50 (D(1A) dopamine receptor): 7 µM
- IC50 (D(3) dopamine receptor): > 10 µM
- IC50 (Histamine H2 receptor): > 10 µM
- IC50 [28]: > 10 µM
- half-life [29]: 4.9 h
- IC50 [31]: > 10 µM
- Cmax [32]: 190 ng/mL
- IC50 (ADRB1): > 10 µM
- IC50 [34]: > 10 µM
- IC50 [38]: 1 µM
- IC50 [40]: 9.49 µM
- IC50 [41]: 0.14 µM
- IC50 [44]: > 10 µM
SMILES: COc1cc(NC(=O)c2ccc(-c3ccc(Cl)cc3)o2)cc(OC)c1
- ED50 (Rattus norvegicus [1]): > 100 mg/kg
- ED50 (Rattus norvegicus [4]): > 300 mg/kg
- ED50 (Rattus norvegicus [8]): 70 mg/kg
- Activity (Rattus norvegicus [10]): 71%
- Activity (Rattus norvegicus [12]): 53%
- Activity (Rattus norvegicus [13]): 9%
- Activity (Rattus norvegicus [15]): 0%
- Activity (Rattus norvegicus [16]): 25%
- Activity (Rattus norvegicus [20]): 70%
- Activity (Rattus norvegicus [22]): 0%
- ED50 (Rattus norvegicus [23]): > 100 mg/kg
- Activity (Rattus norvegicus [24]): 54%
- ED50 (Rattus norvegicus [30]): 85 mg/kg
- Activity (Rattus norvegicus [33]): 9%
- ED50 (Rattus norvegicus [35]): 100 mg/kg
- Activity (Rattus norvegicus [36]): 0%
- ED50 (Rattus norvegicus [37]): > 100 mg/kg
- Activity (Rattus norvegicus [39]): 46%
- Activity (Rattus norvegicus [42]): 12%
- ED50 (Rattus norvegicus [43]): > 100 mg/kg
- Activity (Rattus norvegicus [45]): 14%
